From US20260109721A1, “IONIZABLE CATIONIC LIPIDS INCORPORATING SILICON: SYNTHESIS AND LNP FORMULATION” (priority 2023, published 2026)
Read-outs that look alike come from different tables or passages of the source.

Assays:
[1] = system: HepG2 cell line; test: In vitro toxicity study on HepG2 cell line (resazurin, viability and IC50); assay type: cell-based, human; conditions: for IC50: read-out: IC50 value, μM (on HepG2 cell)
In short: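 HepG2 cells (1000/well) were treated after overnight incubation with lipids at 6.25–800 μM for 48 h. Viability was read by resazurin fluorescence (530/580 nm) after 5 h at 37 °C, relative to ethanol vehicle controls. IC50 values came from concentration-response curves.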

[2] = Encapsulation efficiency of loaded LNPs, RiboGreen RNA assay (Method A); assay type: physicochemical; conditions: encapsulation efficiency of mRNA-loaded LNP, Method A, RiboGreen
In short: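 mRNA-LNP samples diluted in TE buffer (~4-7 μg/mL RNA) and plated in duplicate with TE or Triton X-100 buffer, then 10 min at 37° C to lyse particles. RiboGreen (1:100 in TE pH 7.5) added after cooling; fluorescence ex 480/em 525, mRNA quantified against RNA standard curve.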

[3] = system: HeLa cells; test: Cell viability assessment with resazurin assay (Method A); assay type: cell-based
In short: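 HeLa cells after Luc mRNA LNP transfection were incubated 50 min at 37 °C with 0.025 mg/ml resazurin in DMEM/F12 with 10% FCS. Resorufin fluorescence was read at ex 540/em 610 nm, background-subtracted, and expressed as percent of OptiMEM-only controls.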

[4] = HepG2 cells, 6.25 μM lipid, 48 h post-treatment, resazurin, relative to ethanol vehicle controls
[5] = HepG2 cells, 12.5 μM lipid, 48 h post-treatment, resazurin, relative to ethanol vehicle controls
[6] = HepG2 cells, 25 μM lipid, 48 h post-treatment, resazurin, relative to ethanol vehicle controls
[7] = HepG2 cells, 50 μM lipid, 48 h post-treatment, resazurin, relative to ethanol vehicle controls
[8] = HepG2 cells, 100 μM lipid, 48 h post-treatment, resazurin, relative to ethanol vehicle controls
[9] = HepG2 cells, 200 μM lipid, 48 h post-treatment, resazurin, relative to ethanol vehicle controls
[10] = HepG2 cells, 400 μM lipid, 48 h post-treatment, resazurin, relative to ethanol vehicle controls
[11] = HepG2 cells, 800 μM lipid, 48 h post-treatment, resazurin, relative to ethanol vehicle controls
[12] = Homo sapiens, lipid toxicity, HepG2, 48 h post-treatment, resazurin, 6.25-800 μM

Compound	Viability (%) at different lipid concentrations, mean [1, 4]	Viability (%) at different lipid concentrations, mean [1, 5]	Viability (%) at different lipid concentrations, mean [1, 6]	Viability (%) at different lipid concentrations, mean [1, 7]	Viability (%) at different lipid concentrations, mean [1, 8]	Viability (%) at different lipid concentrations, mean [1, 9]	Viability (%) at different lipid concentrations, mean [1, 10]	Viability (%) at different lipid concentrations, mean [1, 11]	IC50 [1, 12]	EE (%) [2]	Cell Viability % (Average metabolic rate over all doses, Resazurin) ([3]; human)	Viability (%) at different lipid concentrations, mean ([1]; human, 48 h, 6.25 μM)	Viability (%) at different lipid concentrations, mean ([1]; human, 48 h, 50 μM)	IC50 ([1]; Homo sapiens, HepG2, 48 h)	IC50 ([1]; lipid toxicity, HepG2, 48 h post-treatment, resazurin, 6.25-800 μM)	Cell Viability % (Average metabolic rate over all doses, Resazurin) [3]
CCCCCCCC/C=C\CCCCCCCCOC(=O)C(C)(C)CC(OCCCCCCCC/C=C\CCCCCCCC)O[Si](C)(C)OCCCCCCN1CCCCC1CO (centres unmarked) [Example 89, (Z)-octadec-9-en-1-yl 4-((((6-(2-(hydroxymethyl)piperidin-1-yl)hexyl)oxy)dimethylsilyl)oxy)-2,2-dimethyl-4-(((Z)-octadec-9-en-1-yl)oxy)butanoate]	101.4%	97.9%	97.9%	102.8%	108.3%	106.6%	99.5%	91.6%	> 800 µM	89%	96%					
CCCCCCCC/C=C\CCCCCCCCOC(=O)C(C)(C)CC(OCCCCCCCC/C=C\CCCCCCCC)O[Si](C)(C)OCCCCCCN1CCCC1CO (centres unmarked) [Example 90, (Z)-octadec-9-en-1-yl 4-((((6-(2-(hydroxymethyl)pyrrolidin-1-yl)hexyl)oxy)dimethylsilyl)oxy)-2,2-dimethyl-4-(((Z)-octadec-9-en-1-yl)oxy)butanoate]	101.5%	96.4%	96.6%	100.5%	105.8%	104.9%	93.1%	84.0%	> 800 µM	87%	106%					
CCCCCCCC/C=C\CCCCCCCCOC(=O)C(C)(C)CC(OCCCCCCCC/C=C\CCCCCCCC)O[Si](C)(C)OCCCCCCN(C)CCCCO (centres unmarked) [Example 91, (Z)-octadec-9-en-1-yl 18-hydroxy-2,2,6,6,14-pentamethyl-4-(((Z)-octadec-9-en-1-yl)oxy)-5,7-dioxa-14-aza-6-silaoctadecanoate]	100.2%	98.8%	108.4%	112.4%	103.1%	88.0%	61.2%	44.1%	625 µM	88%	105%					
CCCCCCCC/C=C\CCCCCCCCOC(=O)C(C)(C)CC(OCCCCCCCC/C=C\CCCCCCCC)O[Si](C)(C)OCCCCCCN(C)CC(O)CO (centres unmarked) [Example 92, (Z)-octadec-9-en-1-yl 1,2-dihydroxy-4,12,12,16,16-pentamethyl-14-(((Z)-octadec-9-en-1-yl)oxy)-11,13-dioxa-4-aza-12-silaheptadecan-17-oate]	105.5%	104.3%	110.6%	109.4%	98.9%	80.7%	63.8%	49.2%	691 µM	89%	111%					
CCCCCCCC/C=C\CCCCCCCCOC(=O)C(C)(C)CC(OCCCCCCCC/C=C\CCCCCCCC)O[Si](C)(C)OCCCCCCN(C)CCO (centres unmarked) [Example 93, (Z)-octadec-9-en-1-yl 1-hydroxy-3,11,11,15,15-pentamethyl-13-(((Z)-octadec-9-en-1-yl)oxy)-10,12-dioxa-3-aza-11-silahexadecan-16-oate]	102.3%	99.0%	105.2%	112.1%	111.6%	99.7%	83.4%	72.2%	> 800 µM	88%	106%					
CCCCCCCC/C=C\CCCCCCCCOC(=O)C(C)(C)CCC(OCCCCCCCC/C=C\CCCCCCCC)O[Si](C)(C)OCCCCCCN(CCO)CCO (centres unmarked) [Example 94, (Z)-octadec-9-en-1-yl 1-hydroxy-3-(2-hydroxyethyl)-11,11,16,16-tetramethyl-13-(((Z)-octadec-9-en-1-yl)oxy)-10,12-dioxa-3-aza-11-silaheptadecan-17-oate]		96.6%	97.9%		106.5%	107.9%	104.0%	103.1%	> 800 µM	86%	101%	101.5%	101.3%			
CCCCCCCC/C=C\CCCCCCCCOC(=O)C(C)(C)CCC(OCCCCCCCC/C=C\CCCCCCCC)O[Si](C)(C)OCCCCCCN1CCOCC1 (centres unmarked) [Example 95, (Z)-octadec-9-en-1-yl 5-((dimethyl((6-morpholinohexyl)oxy)silyl)oxy)-2,2-dimethyl-5-(((Z)-octadec-9-en-1-yl)oxy)pentanoate]	102.8%	97.8%	98.4%	99.7%	98.8%	100.3%	103.6%	104.6%	> 800 µM	88%	106%					
CCCCCCCC/C=C\CCCCCCCCOC(=O)C(C)(C)CC(OCCCCCCCC/C=C\CCCCCCCC)O[Si](C)(C)OCCCCCCN(CCO)CCN(CCO)CCCCCCO[Si](C)(C)OC(CC(C)(C)C(=O)OCCCCCCCC/C=C\CCCCCCCC)OCCCCCCCC/C=C\CCCCCCCC (centres unmarked) [Example 96, di((Z)-octadec-9-en-1-yl) 14,17-bis(2-hydroxyethyl)-2,2,6,6,25,25,29,29-octamethyl-4,27-bis(((Z)-octadec-9-en-1-yl)oxy)-5,7,24,26-tetraoxa-14,17-diaza-6,25-disilatriacontanedioate]	98.62%	98.94%	97.36%	96.50%	95.63%	90.16%	67.88%	5.80%	465 µM	89%	104%					
C#CCN(C)CCCCCCO[Si](C)(C)OC(CC(C)(C)C(=O)OCCCCCCCC/C=C\CCCCCCCC)OCCCCCCCC/C=C\CCCCCCCC (centres unmarked) [Example 97, (Z)-octadec-9-en-1-yl 4,12,12,16,16-pentamethyl-14-(((Z)-octadec-9-en-1-yl)oxy)-11,13-dioxa-4-aza-12-silaheptadec-1-yn-17-oate]	100.7%	96.1%	95.5%	97.5%	98.9%	99.7%	91.8%	0.7%		86%	109%			501 µM		
CCCCCCCCCCCOC(=O)CCCCCN(CCO)CCCCCCCC(=O)OC(CCCCCCCC)CCCCCCCC [SM-102, reference compound]	86.5%	101.5%	101.7%	101.4%	21.2%	0.4%	0.2%	0.0%		88%					85 µM	91%
